Assay results published in the NIST ThermoML archive (doi:10.1021/je050062a).

Experiments:
[1] = refractive index (Na D-line) (dimensionless); details: 298.15 K; 101.33 kPa; Liquid; Standard Abbe refractometry
[2] = Liquid; for mass density: 298.15 K, 101.33 kPa

CC(C)C(C)O (configuration not stated) [3-methyl-2-butanol]
Details	mass density [kg/m3]	refractive index
[1]	–	1.407
[2]	813.42	–

[2]
Details	vapor or sublimation pressure [kPa]
323.61 K	6.527
329.8 K	9.28
330 K	9.35
333.31 K	11.16
336.52 K	13.19
340 K	15.7
340.67 K	16.23
346.13 K	21.09
354.08 K	30.24
360.75 K	40.25
365.98 K	49.79
370.47 K	59.38
374.44 K	69.02
380.99 K	87.65
382.59 K	92.61

CC(=O)C(C)C [3-methyl-2-butanone]
Details	mass density [kg/m3]	refractive index
[1]	–	1.3862
[2]	799.55	–

[2]
Details	vapor or sublimation pressure [kPa]
310.45 K	12.1
318.08 K	16.98
324.32 K	22.06
328.85 K	26.46
330 K	27.69
333.49 K	31.7
337.18 K	36.45
340 K	40.45
340.26 K	40.84
346.23 K	50.54
348.87 K	55.4
353.57 K	64.95
357.9 K	74.9
361.86 K	84.97
365.36 K	94.78

CCCC(C)C [2-methylpentane]
Details	mass density [kg/m3]	refractive index
[1]	–	1.36877
[2]	648.46	–

Details	vapor or sublimation pressure [kPa]
[2], 330 K	90.76
